# Laboratory results published in patent US5208032A, “Increasing the growth of turkeys using implant of 19-nortestosterone” (Rutgers, The State University of New Jersey, priority 1992, dated 1993).
# Key:
# [1] = Growth of castrate male turkeys implanted with 19-nortestosterone (Study III, Table V); type: in vivo, Large White Nicholas turkeys; settings: castrated male, 5-cm capsule
# Experimental: The same large white strain of turkey (received 1 day posthatching from Nicholas Breeding Farms, CA) was used in all studies. Poults were reared in deep litter brooder pens from 1 day posthatch and exposed to constant light until initiation of Studies I and III or through completion in the case of Study II. Studies I and III were conducted in an environmentally controlled room (photoperiod 12L:12D) with birds housed individually in wire-floored layer cages (space dimensions of 0.31 W×0.46 L×0.53 H meters per cage). Water and feed (Agway Game and Turkey Starter Crumbles) was available at all times. Turkeys were rank ordered by weight and distributed into treatment groups of equal mean body weights at the start of each Study (I, II and III).
# Body weight determinations were made at the second and final week of each study, and several organs and tissues were excised and immediately weighed at the time of necropsy. Final shank-toe length, as an indicator of skeletal growth, was also determined. Birds were sacrificed via exanguination by laceration of the jugular vein. Specific details on the experimental design and conduct of each turkey study will follow.
# Male and female turkeys were either sham-operated or castrated (Quigley, 1962) at 4 weeks of age in the same manner as previously described for chickens. However, due to the small size and extremely viscous nature of the turkey testicle at 2 weeks of age, birds were castrated at 4 weeks of age. […] This was important since when a portion of the testicle is left behind or dropped back inside the body cavity after having been torn loose, the bird will become what is called in the poultry industry, a "slip".
# Pre- (4 weeks) and post-surgically (1 week), birds were floor-reared together on pine shavings. At 5 weeks of age, birds were transferred to individual layer cages (dimensions as in Study I) in an environmentally controlled animal room. One week later (6 weeks of age), birds were assigned to 4 groups (9 birds/group). Group 1 was composed of intact males (sham-operated); Group 2, intact females (sham-operated); Group 3, castrated males implanted that same day with cholesterol-filled Silastic polysiloxane capsules (5.0-cm); and Group 4, castrated males implanted that same day with 19-nortestosterone-filled Silastic polysiloxane capsules (5.0-cm). Castrated males were rank ordered by weight prior to group assignment. Male and female groups were composed of birds which had the intermediate body weights from a pool of 15 birds for each sex. Birds were randomized (planned) into cages among tiers (5 cages per tier) and racks, similar to that of Study I, in order to eliminate any rack (4) or tier (3 vertical) effects within the room. Birds served as individual treatment units for all parameters measured including feed consumption (i.e., supplied with individual box-type feeders) and were placed into every other cage starting on the top tier in rack 1.
# 5-alpha-DHT anti-serum = settings: antibody provided by Dr. Alan L. Johnson; cited from earlier work
# testosterone antiserum = assay: Radioimmunoassay for testosterone: antiserum cross-reaction and inhibition of binding; design: species or system rabbits; settings: standard curve
# Experimental: Plasma concentrations of testosterone were assayed using component kits from Immuchem Corporation (Carson, Calif.) in which charcoal-stripped chicken plasma (free of testosterone) was used to make up the standards. The antibody is covalently bound to the inner surface of each polypropylene tube (testosterone-19-carboxymethylether-BSA was the antigen used to generate the antiserum in rabbits). To these tubes (at room temperature), a 50 microliter volume of either standard or unknown plasma as added directly without extraction. Following this, a 1000-microliter volume (^~ 40,000 cpm) of ^125 I-testosterone (purified by HPLC and radio-iodinated at position 19; Immuchem Corp.) in phosphosaline buffer-gelatin (pH 7.0) was added and the mixture was vortex mixed briefly. After a 2 hour incubation at room temperature, tubes were placed into styrofoam holding racks and the supernatant decanted onto tin trays lined with newspapers. Residual supernatant left on inside walls of tubes was removed by everting styrofoam holding racks and impacting them onto dry absorbent paper towels. At this point, the assay tubes, with their wall bound antibody-antigen complexes, were counted on a Beckman 5500 gamma counter to determine the radioactivity (^125 I-testosterone) which was antibody-bound. The plasma concentrations of testosterone in unknown samples were determine based on the standards (from 0.10-10 ng/ml) in charcoal-stripped chicken plasma included with each assay.
# The Immuchem testosterone antiserum cross-reacts 100% with testosterone, 7.8% with 5-alpha-DHT, 0.56% with 4-adrosten-3,17-dione, and less than 0.01% with 5-alpha-androstane-3-alpha,17-beta-diol and estrogens (manufacturer statement). […] The mean between-assay CV for low and high plasma pools was less than 11.0% (n=5).
# [2] = change vs castrated control, unsigned (increase)
smiles,measurement,setting,value
"C[C@]12CC[C@H]3[C@@H](CCC4=CC(=O)CC[C@@H]43)[C@@H]1CC[C@@H]2O [19-Nortestosterone, 19-nortestosterone]",Abdominal Adipose,[1],4.92 ± 0.91
same,Average Daily Gain,[1],106 ± 3 g
same,Feed/Gain Ratio,[1],1.86 ± 0.05
same,Final 9-Week Body Weight,[1],3643 ± 64 g
same,Final 9-Week Shank-Toe Length,[1],21.44 ± 0.18 cm
same,Right Breast Muscle,[1],303 ± 13 g
same,Abdominal Adipose (%),"[1]; change vs castrated control, unsigned (decrease)",65.6%
same,Average Daily Gain (%),[1]; [2],16.5%
same,Final 9-Week Body Weight (%),[1]; [2],5.9%
same,Right Breast Muscle (%),[1]; [2],14.8%
same,Feed Efficiency,"[1]; change vs castrated control, column head prints (g), cells %",16.6%
"C[C@]12CCC(=O)C[C@@H]1CC[C@@H]1[C@@H]2CC[C@]2(C)[C@@H](O)CC[C@@H]12 [5-alpha-DHT, 5-alpha-dihydrotestosterone]",reaction with 5-alpha-DHT anti-serum (Ford's-F/1),5-alpha-DHT anti-serum,100%
"C[C@]12CC[C@H]3[C@@H](CCC4=CC(=O)CC[C@@]43C)[C@@H]1CC[C@@H]2O [Testosterone, testosterone]",80 percent inhibition of binding,testosterone antiserum; n=5,462.5±1.5 pg/tube
same,Twenty percent inhibition of binding,testosterone antiserum; n=5,15.8±1.7 pg/tube
same,50 percent inhibition of binding,"testosterone antiserum; n=5, 1.95 pg to 500 pg",78.8±9.6 pg/tube
